Earlier results on 1 compound are cited in patent publication US8097636B2, “Heterocyclic derivatives as modulators of ion channels” (Vertex Pharmaceuticals Incorporated, priority 2007, dated 2012).

In the data set the target is NaV1.3 (Homo sapiens, UniProt Q9NY46). The conditions noted are these: read-out: TTX IC50.
Chain of NaV1.3 (Q9NY46 whole entry, looked up): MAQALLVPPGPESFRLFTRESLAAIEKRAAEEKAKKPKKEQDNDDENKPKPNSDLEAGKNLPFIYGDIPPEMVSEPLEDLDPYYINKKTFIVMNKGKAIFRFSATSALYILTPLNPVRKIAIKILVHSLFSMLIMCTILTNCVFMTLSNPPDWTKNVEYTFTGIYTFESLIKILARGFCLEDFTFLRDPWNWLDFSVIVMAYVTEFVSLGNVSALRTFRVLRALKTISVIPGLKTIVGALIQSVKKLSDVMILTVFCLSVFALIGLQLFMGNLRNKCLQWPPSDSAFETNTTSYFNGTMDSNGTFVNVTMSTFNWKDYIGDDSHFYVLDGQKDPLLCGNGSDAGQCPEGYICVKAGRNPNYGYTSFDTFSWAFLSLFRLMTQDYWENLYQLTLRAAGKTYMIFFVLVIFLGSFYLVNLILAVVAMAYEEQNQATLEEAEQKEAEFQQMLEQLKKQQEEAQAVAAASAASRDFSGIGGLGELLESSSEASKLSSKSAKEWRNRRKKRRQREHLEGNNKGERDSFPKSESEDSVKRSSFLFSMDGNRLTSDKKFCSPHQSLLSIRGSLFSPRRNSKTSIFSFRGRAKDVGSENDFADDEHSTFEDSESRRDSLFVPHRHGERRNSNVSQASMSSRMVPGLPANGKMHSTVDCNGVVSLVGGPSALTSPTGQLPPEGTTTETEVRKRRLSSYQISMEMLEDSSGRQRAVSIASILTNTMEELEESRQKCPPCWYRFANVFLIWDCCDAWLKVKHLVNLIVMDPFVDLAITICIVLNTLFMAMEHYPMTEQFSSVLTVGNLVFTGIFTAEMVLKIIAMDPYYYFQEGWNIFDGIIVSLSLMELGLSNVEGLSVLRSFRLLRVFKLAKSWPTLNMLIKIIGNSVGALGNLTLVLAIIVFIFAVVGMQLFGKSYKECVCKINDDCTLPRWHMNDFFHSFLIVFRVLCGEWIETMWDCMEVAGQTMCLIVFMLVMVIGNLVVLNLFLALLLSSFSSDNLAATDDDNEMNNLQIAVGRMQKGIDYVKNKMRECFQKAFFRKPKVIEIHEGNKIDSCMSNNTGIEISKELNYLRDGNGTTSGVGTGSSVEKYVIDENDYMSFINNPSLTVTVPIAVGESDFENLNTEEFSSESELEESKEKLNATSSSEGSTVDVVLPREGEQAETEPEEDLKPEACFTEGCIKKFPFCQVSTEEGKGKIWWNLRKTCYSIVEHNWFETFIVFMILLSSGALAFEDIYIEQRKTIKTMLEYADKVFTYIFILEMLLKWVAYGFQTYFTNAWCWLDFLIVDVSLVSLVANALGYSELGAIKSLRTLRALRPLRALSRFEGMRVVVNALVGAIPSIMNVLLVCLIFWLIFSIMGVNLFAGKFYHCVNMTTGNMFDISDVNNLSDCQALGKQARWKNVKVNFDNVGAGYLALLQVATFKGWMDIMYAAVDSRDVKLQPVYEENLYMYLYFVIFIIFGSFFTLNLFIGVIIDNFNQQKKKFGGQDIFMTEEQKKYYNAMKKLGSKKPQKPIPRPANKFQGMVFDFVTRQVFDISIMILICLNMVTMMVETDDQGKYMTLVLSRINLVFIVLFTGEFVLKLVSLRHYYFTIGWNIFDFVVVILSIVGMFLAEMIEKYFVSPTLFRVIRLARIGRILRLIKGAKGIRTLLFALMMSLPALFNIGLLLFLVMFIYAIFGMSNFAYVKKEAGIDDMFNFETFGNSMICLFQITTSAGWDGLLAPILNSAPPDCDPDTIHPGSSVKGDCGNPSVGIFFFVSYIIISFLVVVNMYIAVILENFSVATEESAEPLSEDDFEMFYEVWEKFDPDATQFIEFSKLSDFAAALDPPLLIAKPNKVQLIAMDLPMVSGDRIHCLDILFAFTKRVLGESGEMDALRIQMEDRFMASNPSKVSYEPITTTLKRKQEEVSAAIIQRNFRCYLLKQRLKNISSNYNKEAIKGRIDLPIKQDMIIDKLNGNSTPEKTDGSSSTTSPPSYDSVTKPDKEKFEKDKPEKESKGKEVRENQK

Turning to `NC1=N[C@H](O)[C@H]2[C@H]3O[C@]4(O)O[C@@H]([C@@H](O)[C@@]2(N1)[C@@H]4O)[C@]3(O)CO` [TTX, tetrodotoxin], the concentration for half-maximal inhibition (IC50) is 15 nM.
